We go through two compounds from article PMC6149679 (2017).

The subject of experiment [1] is poly A (RNA, polymer) A. Description: fluorescence titration (λexc 355 nm), Scatchard. Conditions: Na+ (sodium cacodylate, I = 0.05 M); pH 7.0; n fixed at 0.2; polynucleotide as phosphates; per base.
Experiment [2] relates to poly A–poly U (RNA, polymer) A/U. Description: fluorescence titration (λexc 355 nm). The following applies: Na+ (sodium cacodylate, I = 0.05 M); pH 7.0; no emission change.
Experiment [3] relates to poly AH+-poly AH+ (poly A at pH 5) (RNA, polymer, adenine protonated at pH 5) A. Description: fluorescence titration (λexc 355 nm). The following applies: Na+ (sodium cacodylate, I = 0.05 M), emission of 2 did not change.
Experiment [4] has as its system poly A–poly U (RNA, polymer) A/U. Description: thermal denaturation, absorbance at 260 nm. The following applies: Na+ (sodium cacodylate, I = 0.05 M); pH 7.0; no stabilisation (error ± 0.5 °C); same at pH 5.
Experiment [5] has the same test system. Description: fluorescence titration (λexc 355 nm), Scatchard. The following applies: Na+ (sodium cacodylate, I = 0.05 M); pH 5.0; n fixed at 0.2; polynucleotide as phosphates; per base.

In the case of `COC(=O)C(Cc1cc2cn(CCN3C(=O)c4ccccc4C3=O)c(=O)nc2[nH]1)NC(=O)CNC(=O)[C@@H](CCCCN)NC(=O)c1ccc(C(=O)NC(=N)N)[nH]1` (stereo partly shown), the “log Ks” value stood at 4.1 in experiment [1] and 3.5 in experiment [5]. Moreover, the binding entry in experiment [2], in experiment [3] and in experiment [4] was “no” throughout.

Turning to `COC(=O)C(Cc1cc2cn(CCN3C(=O)c4ccccc4C3=O)c(=O)nc2[nH]1)NC(=O)CNC(=O)[C@H](N)CCCCNC(=O)c1ccc(C(=O)NC(=N)N)[nH]1` (stereo partly shown), the binding result in experiment [2] and in experiment [4] was “no” each time.
